In experiment [1] the test system is H3K27me3 mark in Hela cells expressing wild type EZH2. Nature of the experiment: H3K27me3 Alpha Hela Assay (AlphaLISA). Format: cell-based. To be noted: Homo sapiens, 72 hrs, read-out: H3K27me3_Alpha_HeLa (EC50). Here is the method: H3K27me3 Alpha Hela Assay (AlphaLISA). Ten different doses of each test compound (in a series of 3-fold dilutions) were plated in duplicate 384-well tissue culture treated plates (Catalog #781080; Greiner Bio One; Monroe, N.C.). Hela cells grown in culture were trypsinized and counted using a Countess® cell counter (Catalog # C10281; Life Technologies, Grand Island, N.Y.). Cell were diluted to 67,000 cells per mL in 10% DMEM (Catalog #10569-010 Life Technologies, Grand Island, N.Y.) and 15 μL (1,000 cells) were plated into each well using the Biotek MicroFlo™ Select Dispenser (BioTek Instruments, Inc. Vermont, USA),) of the 384-well plate. Plates were incubated at 37° C./5% CO2 for 72 hrs. One of the duplicate plates was processed for HeLa assay and the other for viability.
To the plate processed for AlphaLISA was added 5 μL per well Cell-Histone Lysis buffer (1×) (Catalog # AL009F1 Perkin Elmer; Waltham, Mass.) and the plate was incubated at RT for 30 minutes on a plate shaker with low speed (Model#4625-Q Thermo Scientific; Waltham, Mass.). Then, 10 μL per well Histone Extraction buffer (catalog # AL009F2; Perkin Elmer; Waltham, Mass.) was added and the plate further incubated at RT for 20 min on plate shaker with low speed. To each well was then added 10 μL per well of a 5× mix of anti-K27me3 acceptor beads plus Biotinylated anti-Histone H3 (C-ter) Antibody (diluted to 3 nM final) (Catalog #AL118 Perkin Elmer; Waltham, Mass.). Dilution of the acceptor beads and then anti-Histone H3 was with 1× Histone Detection buffer (Catalog # AL009F3 Perkin Elmer; Waltham, Mass.) which was produced diluted from the 10× stock provided. The plate was sealed with an aluminum plate sealer and incubated at 23° C. for 60 min. We then added 10 μL 5× solution of Streptavidin Donor beads (Catalog #6760002 Perkin Elmer; Waltham, Mass.) (20 μg/mL final in 1× Histone Detection Buffer), sealed the plate with Aluminum plate sealer and incubated at 23° C. for 30 min. The plates were then read using an EnVision-Alpha Reader (model #2104 Perkin Elmer; Waltham, Mass.).
Data from both assays was analyzed using Assay Assistant (Constellation Pharmaceuticals In-house product) and Activity Base (IDBS Ltd, Surrey, UK) template. Data files were imported to Assay Assistant and assay conditions were specified. A unique Analysis ID was created and the data files exported to Activity Base. An analysis template was created on Activity Base to measure dose-dependent inhibition of H3K27me3 mark and cell viability respectively. Readout of DMSO wells were used to normalize the data. Resulting curves were fitted using Activity base software Model 205 (IDBS Ltd, Surrey, UK). The data was checked for quality, validated and integrated in excel format using SARview (IDBS Ltd, Surrey, UK).
A general note: In Alpha technology, singlet oxygen from a donor bead excites a nearby acceptor bead.

Another experiment concerns the target EZH2 (Homo sapiens, UniProt Q15910). Nature of the experiment: EZH2 Assay (3H SAM methyl transfer, rPRC2, FlashPlate). The format is biochemical. The following applies: rPRC2, biotinylated oligonucleosomes, 0.2 μM 3H SAM, 2 nM EZH2. The protocol: (§1) EZH2 Assay: Assays were carried out by mixing rPRC2 together with biotinylated oligonucleosome substrates in the presence of the radio-labeled enzyme co-factor, S-adenosyl-L-methionine (^3H SAM) (Perkin Elmer) and monitoring the enzymatically mediated transfer of tritiated methyl groups from ^3H SAM to histone lysine residues. The amount of resulting tritiated methyl histone product was measured by first capturing the biotinylated oligonucleosomes in streptavidin (SAV) coated FlashPlates (Perkin Elmer), followed by a wash step to remove unreacted ^3H SAM, and then counting on a TopCount NXT 384 well plate scintillation counter (Perkin Elmer). The final assay conditions for EZH2 were as follows: 50 mM Tris Buffer pH 8.5, 1 mM DTT, 69 μM Brij-35 detergent, 5.0 mM MgCl2, 0.1 mg/mL BSA, 0.2 μM ^3H SAM, 0.2 μM biotinylated oligonucleosomes, 3.6 μM H3K27me3 peptide and 2 nM EZH2.
(§2) Compound IC50 measurements were obtained as follows: Compounds were first dissolved in 100% DMSO as 10 mM stock solutions. Ten point dose response curves were generated by dispensing varying amounts of the 10 mM compound solution in 10 wells of the 384 well plate (Echo; Labcyte), pure DMSO was then used to backfill the wells to insure all wells have the same amount of DMSO. A 12.5 μL volume of the HMT enzyme, H3K27me3 peptide and oligonucleosome substrate in assay buffer was added to each well of the assay plate using a Multidrop Combi (ThermoFisher). Compounds were pre-incubated with the enzyme for 20 min, followed by initiation of the methyltransferase reaction by addition of 12.5 μL of ^3H SAM in assay buffer (final volume=25 μL). The final concentrations of compounds ranged from a top default concentration of 80 μM down to 0.16 μM in ten 2-fold dilution steps. Reactions were carried out for 60 minutes and quenched with 20 μL per well of 1.96 mM SAH, 50 mM Tris pH 8.5, 200 mM EDTA. Stopped reactions were transferred to SAV coated Flashplates (Perkin Elmer), incubated for 120 min, washed with a plate washer, and then read on the TopCount NXT (1.0 min/well) to measure the amount of methyl histone product formed during the reaction. The amount of methyl histone product was compared with the amount of product formed in the 0% and 100% inhibition control wells allowing the calculation of % Inhibition in the presence of the individual compounds at various concentrations. IC50's were computed using a 4 parameter fit non-linear curve fitting software package (XLFIT, part of the database package, ActivityBase (IDBS)) where the four parameters were IC50, Hill slope, pre-transitional baseline (0% INH), and post-transitional baseline (100% INH); with the latter two parameters being fixed to zero and 100%, respectively, by default.

For another experiment, the target named is Y641N EZH2 (Homo sapiens, UniProt Q15910, Y641N). Kind of experiment: Assay for Y641N EZH2 (as the EZH2 assay, H3K27Me2 oligonucleosomes as substrate). Format: biochemical. The following applies: Y641N EZH2 mutant, reconstituted H3K27Me2 oligonucleosomes as substrate. The protocol: as §1, §2
Sequence of Y641N EZH2 (Q15910 whole entry Y641N): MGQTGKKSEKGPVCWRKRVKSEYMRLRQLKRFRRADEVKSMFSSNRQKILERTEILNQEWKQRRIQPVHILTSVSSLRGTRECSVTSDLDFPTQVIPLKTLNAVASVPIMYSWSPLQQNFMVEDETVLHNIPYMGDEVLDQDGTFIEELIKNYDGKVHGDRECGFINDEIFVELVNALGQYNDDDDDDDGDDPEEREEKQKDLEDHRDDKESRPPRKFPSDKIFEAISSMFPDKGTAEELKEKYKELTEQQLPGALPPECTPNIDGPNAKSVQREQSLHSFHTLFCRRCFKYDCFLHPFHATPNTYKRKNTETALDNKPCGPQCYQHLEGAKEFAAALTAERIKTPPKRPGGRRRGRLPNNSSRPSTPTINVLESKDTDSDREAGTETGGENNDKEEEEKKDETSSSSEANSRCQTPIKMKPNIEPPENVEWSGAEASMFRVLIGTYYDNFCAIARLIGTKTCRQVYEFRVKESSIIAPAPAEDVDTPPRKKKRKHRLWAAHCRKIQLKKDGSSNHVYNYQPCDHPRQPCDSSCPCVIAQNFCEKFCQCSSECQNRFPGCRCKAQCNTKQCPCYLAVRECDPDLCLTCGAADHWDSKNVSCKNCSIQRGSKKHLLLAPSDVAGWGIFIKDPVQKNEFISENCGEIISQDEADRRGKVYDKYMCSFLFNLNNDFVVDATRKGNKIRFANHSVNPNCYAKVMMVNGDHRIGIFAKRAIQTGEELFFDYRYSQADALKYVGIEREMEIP
Sequence of Y641N EZH2 (O75530 whole entry partner): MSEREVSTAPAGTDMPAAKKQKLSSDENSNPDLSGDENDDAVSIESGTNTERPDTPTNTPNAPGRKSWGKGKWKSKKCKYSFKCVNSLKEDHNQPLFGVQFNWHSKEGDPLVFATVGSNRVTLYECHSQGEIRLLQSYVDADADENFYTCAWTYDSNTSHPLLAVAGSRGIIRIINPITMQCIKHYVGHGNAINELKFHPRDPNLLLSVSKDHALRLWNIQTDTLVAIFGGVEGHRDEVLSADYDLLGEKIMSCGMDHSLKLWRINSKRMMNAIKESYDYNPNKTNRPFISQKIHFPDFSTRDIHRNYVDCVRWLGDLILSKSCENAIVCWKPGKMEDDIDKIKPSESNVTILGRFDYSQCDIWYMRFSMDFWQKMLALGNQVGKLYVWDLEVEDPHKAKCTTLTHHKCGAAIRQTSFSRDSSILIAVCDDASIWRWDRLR
Sequence of Y641N EZH2 (Q15022 whole entry partner): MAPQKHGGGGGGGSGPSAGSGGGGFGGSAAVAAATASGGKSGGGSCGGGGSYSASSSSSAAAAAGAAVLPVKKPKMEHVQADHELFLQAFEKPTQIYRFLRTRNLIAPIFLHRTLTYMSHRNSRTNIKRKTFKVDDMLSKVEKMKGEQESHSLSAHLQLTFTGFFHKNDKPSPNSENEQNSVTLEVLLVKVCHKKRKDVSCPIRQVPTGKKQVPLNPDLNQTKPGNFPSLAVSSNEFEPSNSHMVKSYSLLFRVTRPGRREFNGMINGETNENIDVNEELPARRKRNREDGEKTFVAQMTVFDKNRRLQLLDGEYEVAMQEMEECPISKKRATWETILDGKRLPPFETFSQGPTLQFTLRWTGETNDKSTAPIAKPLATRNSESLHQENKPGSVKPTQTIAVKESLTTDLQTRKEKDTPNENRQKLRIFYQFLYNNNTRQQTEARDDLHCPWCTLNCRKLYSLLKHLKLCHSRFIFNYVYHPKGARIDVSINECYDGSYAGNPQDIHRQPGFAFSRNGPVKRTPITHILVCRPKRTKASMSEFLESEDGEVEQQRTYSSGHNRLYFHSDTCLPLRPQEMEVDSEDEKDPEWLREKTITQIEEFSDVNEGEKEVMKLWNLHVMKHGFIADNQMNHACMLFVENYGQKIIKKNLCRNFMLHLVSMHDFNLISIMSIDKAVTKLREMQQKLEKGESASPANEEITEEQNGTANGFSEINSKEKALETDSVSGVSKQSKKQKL
Assay for Y641N EZH2 was performed as above using reconstituted H3K27Me2 oligonucleosomes as substrate.

Sequence of EZH2 (Q15910 whole entry): as the sequence (Q15910 whole entry Y641N) above, with N641Y counted along it
Sequence of EZH2 (O75530 whole entry partner): as the sequence (O75530 whole entry partner) above
Sequence of EZH2 (Q15022 whole entry partner): as the sequence (Q15022 whole entry partner) above

For `COc1ccc2c(C(=O)NCc3c(C)cc(C)[nH]c3=O)c(C)c(C(C)C3CCN(CC(C)(C)O)CC3)n2n1` (centres unmarked) [Compound 127, N-((4,6-dimethyl-2-oxo-1,2-dihydropyridin-3-yl)methyl)-7-(1-(1-(2-hydroxy-2-methylpropyl)piperidin-4-yl)ethyl)-2-methoxy-6-methylpyrrolo[1,2-b]pyridazine-5-carboxamide], in experiment [1], the EC50 (usually the concentration at which the effect is half-maximal) was 2000 to 10000 nM. The IC50 – broadly, the concentration needed to halve the response being measured – at EZH2 is below 100 nM.
For the compound `Cc1cc(C)c(CNC(=O)c2c(C)c(C(C)C3CCN(CC(C)(C)O)CC3)n3ncccc23)c(=O)[nH]1` (centres unmarked) [Compound 128, N-((4,6-dimethyl-2-oxo-1,2-dihydropyridin-3-yl)methyl)-7-(1-(1-(2-hydroxy-2-methylpropyl)piperidin-4-yl)ethyl)-6-methylpyrrolo[1,2-b]pyridazine-5-carboxamide], the EC50 in experiment [1] is below 400 nM. At EZH2, the IC50 was below 100 nM.
Taken in the same sequence, the figures for `Cc1ccc2c(C(=O)NCc3c(C)cc(C)[nH]c3=O)c(C)c(C(C)C3CCN(CC(C)(C)O)CC3)n2n1` (centres unmarked) [Compound 129, N-((4,6-dimethyl-2-oxo-1,2-dihydropyridin-3-yl)methyl)-7-(1-(1-(2-hydroxy-2-methylpropyl)piperidin-4-yl)ethyl)-2,6-dimethylpyrrolo[1,2-b]pyridazine-5-carboxamide] were 400 to 2000 nM and below 100 nM.
For the compound `COc1cc(C)[nH]c(=O)c1CNC(=O)c1c(C)c(C(C)N(C)C)n2ncccc12` (centres unmarked) [Compound 130, 7-(1-(dimethylamino)ethyl)-N-((4-methoxy-6-methyl-2-oxo-1,2-dihydropyridin-3-yl)methyl)-6-methylpyrrolo[1,2-b]pyridazine-5-carboxamide], in experiment [1], the EC50 was 2000 to 10000 nM. Further, the IC50 at EZH2 was below 100 nM.
As to `COc1cc(C)[nH]c(=O)c1CNC(=O)c1c(Cl)c(C(C)C2CCOCC2)n2ncccc12` (centres unmarked) [Compound 132, 6-chloro-N-((4-methoxy-6-methyl-2-oxo-1,2-dihydropyridin-3-yl)methyl)-7-(1-(tetrahydro-2H-pyran-4-yl)ethyl)pyrrolo[1,2-b]pyridazine-5-carboxamide], in experiment [1], the EC50 was below 400 nM. At EZH2, the IC50 was below 100 nM.
With `COc1cc(C)[nH]c(=O)c1CNC(=O)c1c(C)c(C(C)C2CCN(CC(F)(F)F)CC2)n2ncccc12` (centres unmarked) [Compound 133, N-((4-methoxy-6-methyl-2-oxo-1,2-dihydropyridin-3-yl)methyl)-6-methyl-7-(1-(1-(2,2,2-trifluoroethyl)piperidin-4-yl)ethyl)pyrrolo[1,2-b]pyridazine-5-carboxamide], the half-inhibitory concentration (IC50) at Y641N EZH2 and at EZH2 was below 100 nM each time. Also, the EC50 in experiment [1] was below 400 nM.
As for `COc1cc(C)[nH]c(=O)c1CNC(=O)c1c(C)c(C(C)C2CCN(CCC(F)(F)F)CC2)n2ncccc12` (centres unmarked) [Compound 134, N-((4-methoxy-6-methyl-2-oxo-1,2-dihydropyridin-3-yl)methyl)-6-methyl-7-(1-(1-(3,3,3-trifluoropropyl)piperidin-4-yl)ethyl)pyrrolo[1,2-b]pyridazine-5-carboxamide], the EC50 in experiment [1] was 400 to 2000 nM. The half-maximal inhibitory concentration (IC50) at EZH2 was below 100 nM.
For the compound `COc1cc(C)[nH]c(=O)c1CNC(=O)c1c(C)c(C(C)C2CCN(C(=O)C(C)(F)F)CC2)n2ncccc12` (centres unmarked) [Compound 135, 7-(1-(1-(2,2-difluoropropanoyl)piperidin-4-yl)ethyl)-N-((4-methoxy-6-methyl-2-oxo-1,2-dihydropyridin-3-yl)methyl)-6-methylpyrrolo[1,2-b]pyridazine-5-carboxamide], the IC50 against Y641N EZH2 was 1000 to 10000 nM; at EZH2, below 100 nM. Moreover, in experiment [1], the EC50 was below 400 nM.
Consider `COc1cc(C)[nH]c(=O)c1CNC(=O)c1c(C)c(C(C)C2CCN(C(=O)C(C)(C)F)CC2)n2ncccc12` (centres unmarked) [Compound 136, 7-(1-(1-(2-fluoro-2-methylpropanoyl)piperidin-4-yl)ethyl)-N-((4-methoxy-6-methyl-2-oxo-1,2-dihydropyridin-3-yl)methyl)-6-methylpyrrolo[1,2-b]pyridazine-5-carboxamide], for which the EC50 in experiment [1] is below 400 nM. At EZH2, this compound came in with an IC50 below 100 nM.
For `COc1cc(C)[nH]c(=O)c1CNC(=O)c1c(C)c(C(C)C2CCN(C(=O)CC(F)(F)F)CC2)n2ncccc12` (centres unmarked) [Compound 137, N-((4-methoxy-6-methyl-2-oxo-1,2-dihydropyridin-3-yl)methyl)-6-methyl-7-(1-(1-(3,3,3-trifluoropropanoyl)piperidin-4-yl)ethyl)pyrrolo[1,2-b]pyridazine-5-carboxamide] the same measures were below 400 nM and below 100 nM.
Regarding `COc1cc(C)[nH]c(=O)c1CNC(=O)c1c(C)c(C(C)C2CCN(C(=O)C(F)F)CC2)n2ncccc12` (centres unmarked) [Compound 138, 7-(1-(1-(2,2-difluoroacetyl)piperidin-4-yl)ethyl)-N-((4-methoxy-6-methyl-2-oxo-1,2-dihydropyridin-3-yl)methyl)-6-methylpyrrolo[1,2-b]pyridazine-5-carboxamide], the IC50 was 1000 to 10000 nM on Y641N EZH2 and below 100 nM at EZH2. In addition, the EC50 in experiment [1] was below 400 nM.
In the case of `COc1cc(C)[nH]c(=O)c1CNC(=O)c1c(C)c(C(C)C2CCN(CC(C)(F)F)CC2)n2ncccc12` (centres unmarked) [Compound 143, 7-(1-(1-(2,2-difluoropropyl)piperidin-4-yl)ethyl)-N-((4-methoxy-6-methyl-2-oxo-1,2-dihydropyridin-3-yl)methyl)-6-methylpyrrolo[1,2-b]pyridazine-5-carboxamide], the EC50 in experiment [1] was below 400 nM. Moreover, on EZH2, the half-maximal inhibitory concentration (IC50) is below 100 nM.
For `COc1cc(C)[nH]c(=O)c1CNC(=O)c1c(C)c(C(C)C2CCN(CC(F)F)CC2)n2ncccc12` (centres unmarked) [Compound 145, 7-(1-(1-(2,2-difluoroethyl)piperidin-4-yl)ethyl)-N-((4-methoxy-6-methyl-2-oxo-1,2-dihydropyridin-3-yl)methyl)-6-methylpyrrolo[1,2-b]pyridazine-5-carboxamide] the same measures were below 400 nM and below 100 nM.

The values above are taken from US9745305B2, “Modulators of methyl modifying enzymes, compositions and uses thereof” (Constellation Pharmaceuticals, Inc., priority 2013, dated 2017).
